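Protocol summary: plate cells (96-well), add compound at 5 concentrations, incubate 48 h, interpolate endpoints linearly. GI50 = concentration required for 50% inhibition of growth. At the TGI there is no net growth.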
Assays:
Assay in all cases: DTP human tumour cell line panel, 48 h
[1] = test system: COLO 205 colon
[2] = test system: HCC-2998 colon
[3] = test system: SW-620 colon
[4] = test system: NCI-H23 lung
[5] = test system: MDA-MB-231 breast
[6] = test system: HCT-116 colon
[7] = test system: SK-MEL-2 melanoma
[8] = test system: RXF 393 renal
[9] = test system: U251 CNS
[10] = test system: SK-MEL-5 melanoma

Compound | GI50 [1] [µM] | TGI [1] [µM] | GI50 [2] [µM] | TGI [2] [µM] | GI50 [3] [µM] | TGI [3] [µM] | GI50 [4] [µM] | TGI [4] [µM] | GI50 [5] [µM] | TGI [5] [µM] | GI50 [6] [µM] | TGI [6] [µM] | GI50 [7] [µM] | TGI [7] [µM] | GI50 [8] [µM] | TGI [8] [µM] | GI50 [9] [µM] | TGI [9] [µM] | GI50 [10] [µM] | TGI [10] [µM]
c1ccc(C2ONC3=NCCN32)cc1 (stereo not given) | 41.6 | > 100 | 58.1 | > 100 | 44.7 | > 100 | 66.2 | > 100 | 37.2 | > 100 | 30.3 | > 100 | > 100 | > 100 | 82.9 | > 100 | 55 | > 100 | 0.995 | 49.6
COc1cc(/C=C/C(=O)/C=C/c2cc(OC)c3c(c2)OCO3)cc2c1OCO2 | 4.86 | > 100 | 1.98 | 3.73 | 3.38 | > 100 | 7.69 | > 100 | 7.89 | > 100 | 1.21 | 2.78 | > 100 | > 100 | 2.65 | 6.57 | 2.19 | 6.45 | 5.59 | > 100
COc1cc(C)ccc1C(=O)c1ccc(C)cc1OC | 2.55 | 9.34 | 2.87 | 35.9 | 1.41 | > 100 | 6.31 | > 100 | 7.58 | > 100 | 3.25 | > 100 | 2.45 | > 100 | 1.66 | 4.53 | 3.06 | > 100 | 2.99 | 24.6
O=C(NCC1CC1)c1ccc(-c2cccc(C(=O)NC3CC3)c2)cc1 | > 25 | > 25 | > 25 | > 25 | > 25 | > 25 | > 25 | > 25 | > 25 | > 25 | > 25 | > 25 | > 25 | > 25 | > 25 | > 25 | > 25 | > 25 | > 25 | > 25
Nc1ncn([C@@H]2S[C@H](CO)[C@@H](O)[C@@H]2F)c(=O)n1 | 3.57 | > 100 | 1.84 | > 100 | 1.38 | > 100 | 0.347 | > 100 | > 100 | > 100 | 0.265 | > 100 | > 100 | > 100 | 7.31 | > 100 | 13.9 | > 100 | 0.827 | > 100
C/C(=N/O)c1cccc(Nc2cc(-n3nnc4ccccc43)nc3ccccc23)c1 | 32.4 | > 73 | 10.5 | 23.2 | 21.5 | 57 | 15.7 | 35.5 | 7.2 | > 23.4 | 10.3 | 26 | 28 | > 63.2 | 14.7 | 43 | 20.4 | > 100 | 3.78 | 13.7

— PubChem BioAssay (NCI)
